Assay results as given in paper PMC10254170, “Diastereoselective Synthesis of the Borylated D-Galactose Monosaccharide 3-Boronic-3-Deoxy-D-Galactose and Biological Evaluation in Glycosidase Inhibition and in Cancer for Boron Neutron Capture Therapy (BNCT)” (Molecules, 2023).
Like-named read-outs stand apart in the source and are kept apart here.

What was measured:
Assay type in all cases: biochemical
[1] = tested on: bovine liver β-glucosidase; test: Glycosidase inhibition, bovine liver β-glucosidase; conditions: for inhibition %: in methanol
Text: (§1) Glycosidase modulation studies need to explore selectivity as well as potency. Our drugs and controls are therefore screened against a panel of glycosidases in methanol (Table 1) to identify the glycosidase-related disease area(s), selectivity profile, and potency of biological action for each drug. The presence of organic boron covalently bonded to the drug structure also grants a reduced toxicity profile. Following the glycosidase inhibition range recommendations, an IC50 value >250 μm denotes weak inhibition, 100–249 μm denotes moderate inhibition, 10–99 μm good inhibition, 0.1–9 μm potent inhibition, and <0.1 μm very potent inhibition. […] Our boronated D-galactose 7 represents a novel lead in glycosidase inhibition.
(§2) The glycosidases screened are the following: rice α-glucosidase, yeast α-glucosidase, Bacillus α-glucosidase, rat intestinal maltase α-glucosidase, almond β-glucosidase, bovine liver β-glucosidase, coffee beans α-galactosidase, bovine liver β-galactosidase, Jack bean α-mannosidase, snail β-mannosidase, Penicillium decumbens α-L-rhamnosidase, bovine kidney α-L-fucosidase, Eschierichia coli β-glucuronidase, bovine liver β-glucuronidase, porcine kidney trehalase, Aspergillus niger amyloglucosidase, and bovine kidney N-acetyl-β-glucosaminidase. The disease areas for each glycosidase are summarized in [1].
(§3) The enzymes α-glucosidase (from yeast), β-glucosidases (from almond and bovine liver), α-galactosidase (from coffee beans), β-galactosidase (from bovine liver), α-mannosidase (from Jack bean), β-mannosidase (from snail), α-L-rhamnosidase (from Penicillium decumbens), α-L-fucosidase (from bovine kidney), trehalase (from porcine kidney), β-glucuronidases (from E. coli and bovine liver), amyloglucosidase (from A. niger), para-nitrophenyl glycosides, and various disaccharides were purchased from Sigma-Aldrich Co.
(§4) Brush border membranes were prepared from the rat small intestine according to the method of Kessler et al. and were assayed at pH 6.8 for rat intestinal maltase using maltose. For rat intestinal maltase, porcine kidney trehalase, and A. niger amyloglucosidase activities, the reaction mixture contained 25 mM maltose and the appropriate amount of enzyme, and the incubations were performed for 10–30 min at 37 °C. The reaction was stopped by heating at 100 °C for 3 min. After centrifugation (600 g; 10 min), the resulting reaction mixture was added to the Glucose CII-test Wako (Wako Pure Chemical Ind., Osaka, Japan). The absorbance at 505 nm was measured to determine the amount of the released D-glucose. Other glycosidase activities were determined using an appropriate para-nitrophenyl glycoside as substrate at the optimum pH of each enzyme. The reaction mixture contained 2 mM of the substrate and the appropriate amount of enzyme. The reaction was stopped by the addition of 400 mM Na2CO3. The released para-nitrophenol was measured spectrometrically at 400 nm. All reactions run in methanol.

[2] = tested on: bovine liver β-galactosidase; test: Glycosidase inhibition, bovine liver β-galactosidase; conditions: for inhibition %: in methanol
Text: as §1, §2, §3, §4

[3] = target: T1, bovine liver β-glucuronidase (Bos taurus, UniProt A3KMY8); test: Glycosidase inhibition, bovine liver β-glucuronidase
T1 construct: purchased Sigma-Aldrich Co; host or cells: bovine liver
T1 sequence (A3KMY8 1-652): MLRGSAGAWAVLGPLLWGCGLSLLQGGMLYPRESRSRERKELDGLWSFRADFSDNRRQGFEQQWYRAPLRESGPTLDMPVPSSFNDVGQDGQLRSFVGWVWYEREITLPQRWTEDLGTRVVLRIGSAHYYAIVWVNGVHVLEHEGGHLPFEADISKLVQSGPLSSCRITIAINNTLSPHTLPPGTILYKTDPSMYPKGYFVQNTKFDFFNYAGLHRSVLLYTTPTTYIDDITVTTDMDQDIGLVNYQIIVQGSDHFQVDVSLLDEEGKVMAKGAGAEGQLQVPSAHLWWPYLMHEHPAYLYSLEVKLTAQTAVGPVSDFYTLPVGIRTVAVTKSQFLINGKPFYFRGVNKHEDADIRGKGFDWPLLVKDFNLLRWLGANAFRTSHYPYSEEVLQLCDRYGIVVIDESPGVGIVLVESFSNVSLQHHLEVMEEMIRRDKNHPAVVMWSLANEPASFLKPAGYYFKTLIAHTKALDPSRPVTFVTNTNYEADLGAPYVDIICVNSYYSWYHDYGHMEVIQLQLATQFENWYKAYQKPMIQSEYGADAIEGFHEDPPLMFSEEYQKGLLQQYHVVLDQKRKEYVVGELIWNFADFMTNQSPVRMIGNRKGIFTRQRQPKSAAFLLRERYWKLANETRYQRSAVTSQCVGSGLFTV
Text: as §1, §2, §3, §4

[4] = target: T2, porcine kidney trehalase (Sus scrofa, UniProt I3LIR5); test: Glycosidase inhibition, porcine kidney trehalase
T2 construct: purchased Sigma-Aldrich Co; host or cells: porcine kidney
T2 sequence (I3LIR5 24-583): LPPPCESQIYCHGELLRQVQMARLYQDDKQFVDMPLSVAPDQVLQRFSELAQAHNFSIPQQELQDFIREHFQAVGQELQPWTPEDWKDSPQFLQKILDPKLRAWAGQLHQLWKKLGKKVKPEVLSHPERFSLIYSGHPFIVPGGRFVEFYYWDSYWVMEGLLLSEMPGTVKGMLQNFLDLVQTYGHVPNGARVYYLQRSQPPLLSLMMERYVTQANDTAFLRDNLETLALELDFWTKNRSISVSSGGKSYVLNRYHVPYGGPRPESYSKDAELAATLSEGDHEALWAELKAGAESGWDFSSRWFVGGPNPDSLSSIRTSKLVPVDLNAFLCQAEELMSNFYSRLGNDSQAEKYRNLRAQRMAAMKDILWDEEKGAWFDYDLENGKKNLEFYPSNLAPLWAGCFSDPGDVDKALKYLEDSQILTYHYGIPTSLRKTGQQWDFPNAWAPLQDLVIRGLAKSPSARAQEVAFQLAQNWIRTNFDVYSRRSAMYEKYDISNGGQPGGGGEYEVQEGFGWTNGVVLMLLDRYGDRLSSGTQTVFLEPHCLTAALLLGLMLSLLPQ
Text: as §1, §2, §3, §4

[5] = at 1000 μM, in methanol, read-out: inhibition %
[6] = at 1000 μM, read-out: NI: No inhibition
[7] = at 100 μM, in methanol, read-out: inhibition %
[8] = at 100 μM, read-out: NI: No inhibition

Compound	NI: No inhibition ([1]; at 1000 μM)	inhibition % ([1]; at 1000 μM)	NI: No inhibition ([2]; at 1000 μM)	inhibition % ([2]; at 1000 μM)	NI: No inhibition ([1]; at 100 μM)	inhibition % ([1]; at 100 μM)	NI: No inhibition ([2]; at 100 μM)	inhibition % ([2]; at 100 μM)	inhibition at 100 µM [3, 7]	inhibition at 100 µM [3, 8]	inhibition at 100 µM [4, 7]	inhibition at 100 µM [4, 8]	other results
OCC1OC(O)C(O)C(B(O)O)C1O [Compound 7, 3-Boronic-3-Deoxy-D-galactose]	NI (No inhibition (less than 50% inhibition at 1000 μM))	12.6%	NI (No inhibition (less than 50% inhibition at 1000 μM))	40.7%	–	–	–	–	–	–	–	–	inhibition at 1000 µM [3, 5]: 32.4%; inhibition at 1000 µM [3, 6]: < 50%; inhibition at 1000 µM [4, 5]: 0.5%; inhibition at 1000 µM [4, 6]: < 50%
N[C@@H](Cc1ccc(B(O)O)cc1)C(=O)O [^10B-BPA]	–	–	–	–	NI (No inhibition (less than 50% inhibition at 100 μM))	14.2%	NI (No inhibition (less than 50% inhibition at 100 μM))	0%	–	–	–	–	NI: No inhibition ([3]; at 100 μM): NI (No inhibition (less than 50% inhibition at 100 μM)); inhibition % ([3]; at 100 μM, in methanol): 0%; NI: No inhibition ([4]; at 100 μM): NI (No inhibition (less than 50% inhibition at 100 μM)); inhibition % ([4]; at 100 μM, in methanol): 0%
CC1(C)OCC(C2OC3OC(C)(C)OC3C2[B-]23OCC[NH+]2CCO3)O1 [Compound 6, 3-Deoxy-3-Boronodiethanolamine-1,2:5,6-Di-O-isopropylidene-α-D-galactofuranose]	–	–	–	–	NI (No inhibition (less than 50% inhibition at 100 μM))	12.2%	NI (No inhibition (less than 50% inhibition at 100 μM))	16.3%	12.4%	< 50%	0%	< 50%	–
Borocaptate sodium [BSH]	NI (No inhibition (less than 50% inhibition at 1000 μM))	15%	NI (No inhibition (less than 50% inhibition at 1000 μM))	0%	–	–	–	–	–	–	–	–	NI: No inhibition ([3]; at 1000 μM): NI (No inhibition (less than 50% inhibition at 1000 μM)); inhibition % ([3]; at 1000 μM, in methanol): 19.6%; NI: No inhibition ([4]; at 1000 μM): NI (No inhibition (less than 50% inhibition at 1000 μM)); inhibition % ([4]; at 1000 μM, in methanol): 4.2%
N[C@@H](Cc1ccc(B(O)O)cc1)C(=O)O [BPA, 4-borono-L-phenylalanine]	–	–	–	–	NI (No inhibition (less than 50% inhibition at 100 μM))	0%	NI (No inhibition (less than 50% inhibition at 100 μM))	10.9%	7.4%	< 50%	0%	< 50%	–
